Experimental data taken from the supplement of paper PMC11579375.

Columns and labels:
Experiment in all cases: area under the viability dose-response curve (AUC) (AUC (arbitrary units, max 500 = no viability loss)); higher = less sensitive (higher viability)
Conditions in all cases: exposure time: 120 h; concentration range: 0.1 nM - 10 µM, 6 doses
[1] = tested on: 22E (embryonal-type hepatoblastoma organoid)
Method: (§1)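 Patient-derived hepatoblastoma tumor organoids (about 50 organoids per well, 384-well plates, medium with 5% BME) were treated with the PMC pediatric cancer drug library. Each drug was tested in duplicate at 6 concentrations (0.1 nM to 10 µM, 10-fold steps).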

[2] = tested on: 135F2 (fetal-II hepatoblastoma organoid with high liver markers)
Method: as §1

[3] = tested on: 13F2 (fetal-II hepatoblastoma organoid with high liver markers)
Method: as §1

[4] = tested on: 3E (embryonal-type hepatoblastoma organoid)
Method: as §1

[5] = tested on: 8F1 (fetal-I hepatoblastoma organoid with intermediate liver markers)
Method: as §1

[6] = tested on: 10F2 (fetal-II hepatoblastoma organoid with high liver markers)
Method: as §1

[7] = tested on: 17E (embryonal-type hepatoblastoma organoid)
Method: as §1

[8] = tested on: 17F1 (fetal-I hepatoblastoma organoid with intermediate liver markers)
Method: as §1

[9] = tested on: 27F1 (fetal-I hepatoblastoma organoid with intermediate liver markers)
Method: as §1

[10] = tested on: 13E (embryonal-type hepatoblastoma organoid)
Method: as §1

[11] = tested on: 96F1 (fetal-I hepatoblastoma organoid with intermediate liver markers)
Method: as §1

| Structure (SMILES) | area under the viability dose-response curve [1] | area under the viability dose-response curve [2] | area under the viability dose-response curve [3] | area under the viability dose-response curve [4] | area under the viability dose-response curve [5] | area under the viability dose-response curve [6] | area under the viability dose-response curve [7] | area under the viability dose-response curve [8] | area under the viability dose-response curve [9] | area under the viability dose-response curve [10] | area under the viability dose-response curve [11] |
| --- | --- | --- | --- | --- | --- | --- | --- | --- | --- | --- | --- |
| COc1cc(Nc2c(C#N)cnc3cc(OCCCN4CCN(C)CC4)c(OC)cc23)c(Cl)cc1Cl [Bosutinib] | 471 | 459 | 397 | 435 | 450 | 429 | 429 | 469 | 422 | 447 | 433 |
| C=CC(=O)N1CC[C@H](n2nc(C#Cc3cc(OC)cc(OC)c3)c3c(N)ncnc32)C1 [Futibatinib] | 425 | > 500 | 370 | 236 | 482 | 440 | 323 | > 500 | > 500 | 372 | > 500 |
| C[C@@H](Oc1cc(-n2cnc3ccc(CN4CCN(C)CC4)cc32)sc1C(N)=O)c1ccccc1C(F)(F)F | 256 | 254 | 268 | 246 | 358 | 250 | 277 | 276 | 262 | 262 | 361 |
| CC[C@]1(O)C[C@@H]2CN(CCc3c([nH]c4ccccc34)[C@@](C(=O)OC)(c3cc4c(cc3OC)N(C)[C@H]3[C@@](O)(C(=O)OC)[C@H](OC(C)=O)[C@]5(CC)C=CCN6CC[C@]43[C@@H]65)C2)C1 [Vinblastine] | 223 | 176 | 189 | 148 | 220 | 160 | 183 | 208 | 194 | 164 | 156 |
| C[C@]1(O)C[C@@H](c2nc(-c3ccc4ccc(-c5ccccc5)nc4c3)c3c(N)nccn32)C1 [Linsitinib] | 391 | 487 | 410 | 374 | 484 | 467 | 384 | 492 | 476 | 405 | 454 |
| CS(=O)(=O)N1CCN(Cc2cc3nc(-c4cccc5[nH]ncc45)nc(N4CCOCC4)c3s2)CC1 [Pictilisib] | 404 | 411 | 365 | 380 | 482 | 391 | 350 | 493 | 376 | 413 | 422 |
| Cc1ccc2c(Nc3cccc(Cl)c3F)nccc2c1NC(=O)c1csc2c(N)ncnc12 [Belvarafenib] | 474 | 389 | 407 | 497 | > 500 | 334 | 499 | > 500 | 484 | > 500 | > 500 |
| C[C@@H]1COCCN1c1cc(=O)n2c(n1)N(Cc1cncc(Cl)c1)[C@H](C(F)(F)F)CC2 [SAR405] | 474 | 490 | 467 | 479 | 489 | > 500 | 496 | > 500 | 454 | 497 | > 500 |
| CNCc1ccc(-c2cc(-c3nc(-c4ccc(S(=O)(=O)C(C)C)cc4)cnc3N)on2)cc1 [Berzosertib] | 473 | 391 | 401 | 391 | 499 | 411 | 444 | > 500 | 498 | 461 | 459 |
| COc1cc2nccc(Oc3ccc(NC(=O)NC4CC4)c(Cl)c3)c2cc1C(N)=O [Lenvatinib] | 472 | 469 | 445 | 475 | 461 | 419 | 434 | > 500 | 445 | 468 | 474 |
| Cc1ccc(C(=O)Nc2ccc(Oc3cc4cnn(C)c4cc3-c3cn[nH]c3)c(F)c2)c(=O)n1-c1ccc(F)cc1 [Merestinib] | 464 | 487 | 466 | 452 | 484 | 432 | 486 | > 500 | > 500 | 463 | > 500 |
| CC1(C)CCC2(CC1)N[C@@H](C(=O)N[C@@H]1CC[C@@H](C(N)=O)OC1)[C@H](c1ccnc(Cl)c1F)[C@]21C(=O)Nc2cc(Cl)ccc21 [Milademetan] | 406 | 341 | 256 | 313 | 367 | 268 | 294 | 376 | 357 | 370 | 399 |
| CCn1cc(-c2cccc(C(F)(F)F)c2)c2sc(C(=N)NC3CCS(=O)(=O)CC3)cc2c1=O [I-BRD9] | 493 | 471 | 435 | 376 | 459 | > 500 | 461 | 490 | > 500 | 470 | 478 |
| Cc1cc(Nc2ncc(Cl)c(Nc3ccccc3S(=O)(=O)C(C)C)n2)c(OC(C)C)cc1C1CCNCC1 [Ceritinib] | 375 | 373 | 349 | 351 | 441 | 356 | 368 | 446 | 432 | 381 | 413 |
| Cc1nc(-c2cn3c(n2)-c2ccc(-c4cnn(C(C)(C)C(N)=O)c4)cc2OCC3)n(C(C)C)n1 [Taselisib] | 415 | 435 | 351 | 305 | 475 | 361 | 349 | 493 | 413 | 388 | 437 |
| Cc1cn(-c2cc(NC(=O)c3ccc(C)c(Nc4nccc(-c5cccnc5)n4)c3)cc(C(F)(F)F)c2)cn1 [Nilotinib] | 478 | 476 | 471 | 489 | 486 | > 500 | 456 | 496 | > 500 | 493 | 495 |
| COc1ccc(-c2ccc3c(N4CCOC[C@@H]4C)nc(N4CCOC[C@@H]4C)nc3n2)cc1CO [AZD8055] | 396 | 342 | 278 | 316 | 466 | 259 | 331 | 456 | 468 | 366 | 445 |

| Structure (SMILES) | area under the viability dose-response curve [1] | area under the viability dose-response curve [2] | area under the viability dose-response curve [3] | area under the viability dose-response curve [4] | area under the viability dose-response curve [5] | area under the viability dose-response curve [6] | area under the viability dose-response curve [7] | area under the viability dose-response curve [8] | area under the viability dose-response curve [9] | area under the viability dose-response curve [10] | area under the viability dose-response curve [11] |
| --- | --- | --- | --- | --- | --- | --- | --- | --- | --- | --- | --- |
| CN1CCN(c2ccc(C(=O)Nc3n[nH]c4ccc(Cc5cc(F)cc(F)c5)cc34)c(NC3CCOCC3)c2)CC1 [Entrectinib] | 429 | 438 | 418 | 424 | 460 | 399 | 404 | 448 | 484 | 418 | 454 |
| COc1ccc(Cn2ccc3ccc(C(=O)NO)cc32)cc1 | 452 | 488 | 472 | 452 | 474 | 454 | 475 | 484 | 483 | 490 | 487 |
| CN/N=N/c1[nH]cnc1C(N)=O [MTIC] | > 500 | > 500 | 443 | > 500 | > 500 | 445 | > 500 | > 500 | > 500 | > 500 | > 500 |
| Cn1nccc1Nc1nccc(-c2ccn([C@H](CO)c3ccc(Cl)c(F)c3)c(=O)c2)n1 [Ravoxertinib] | 468 | 380 | 354 | 494 | > 500 | 331 | 475 | > 500 | > 500 | 470 | 483 |
| CC[C@H](Nc1ncnc2[nH]cnc12)c1nc2cccc(F)c2c(=O)n1-c1ccccc1 [Idelalisib] | 492 | > 500 | 496 | 491 | 484 | 492 | 488 | 495 | 492 | 497 | > 500 |
| Nc1cc(F)ccc1NC(=O)c1ccc(CNC(=O)/C=C/c2cccnc2)cc1 [Epidaza] | 461 | 444 | 426 | 466 | > 500 | 395 | 437 | 467 | 482 | 448 | 492 |
| Cc1ccc(NC(=O)c2ccc(CN3CCN(C)CC3)cc2)cc1Nc1nc(-c2cccnc2)cs1 [Masitinib] | 474 | 473 | 489 | 483 | > 500 | 497 | 462 | > 500 | > 500 | 489 | 484 |
| CO[C@H]1C[C@@H]2CC[C@@H](C)[C@@](O)(O2)C(=O)C(=O)N2CCCC[C@H]2C(=O)O[C@H]([C@H](C)C[C@@H]2CC[C@@H](OC(=O)C(C)(CO)CO)[C@H](OC)C2)CC(=O)[C@H](C)/C=C(\C)[C@@H](O)[C@@H](OC)C(=O)[C@H](C)C[C@H](C)/C=C/C=C/C=C/1C [Temsirolimus] | 406 | 469 | 342 | 280 | 493 | 339 | 341 | 471 | 475 | 373 | 496 |
| Cc1sc2c(c1C)C(c1ccc(Cl)cc1)=N[C@@H](CC(=O)Nc1ccc(O)cc1)c1nnc(C)n1-2 [Birabresib] | 399 | 354 | 318 | 358 | 473 | 390 | 395 | 461 | 482 | 410 | 478 |
| CN1CCN(c2ccc3nc(-c4c(N)c5c(F)cccc5[nH]c4=O)[nH]c3c2)CC1 [Dovitinib] | 412 | 455 | 400 | 396 | 499 | 418 | 390 | 468 | 477 | 417 | 433 |
| COc1cccc2c1C(=O)c1c(O)c3c(c(O)c1C2=O)C[C@@](O)(C(=O)CO)C[C@@H]3O[C@H]1C[C@H](N)[C@H](O)[C@H](C)O1 [Doxorubicin] | 336 | 308 | 258 | 263 | 384 | 281 | 278 | 311 | 333 | 305 | 311 |
| O=C1NC(=O)[C@@H](c2cn3c4c(cccc24)CCC3)[C@@H]1c1c[nH]c2ccccc12 [Tivantinib] | 404 | 367 | 350 | 349 | 455 | 320 | 345 | 415 | 375 | 358 | 377 |
| NS(=O)(=O)OC[C@@H]1C[C@@H](n2ccc3c(N[C@H]4CCc5ccccc54)ncnc32)C[C@@H]1O [Pevonedistat] | 470 | 342 | 329 | 448 | 445 | 425 | 383 | 400 | 333 | 451 | 381 |
| Cc1ncc(Cl)cc1NCc1ccc(C(=O)N[C@@H](CC2CCCC2)C(=O)NC2CC2)s1 | > 500 | 476 | 468 | 456 | > 500 | 491 | > 500 | > 500 | 488 | > 500 | > 500 |
| Cc1c(C(=O)Nc2ccc(N3C[C@@H](C)O[C@@H](C)C3)nc2)cccc1-c1ccc(OC(F)(F)F)cc1 [Sonidegib] | 469 | 470 | 470 | 477 | 477 | 409 | 466 | 477 | > 500 | 485 | 465 |
| CNC(=O)c1ccc(Nc2ncc(C(F)(F)F)c(NCc3nccnc3N(C)S(C)(=O)=O)n2)cc1 [Defactinib] | 469 | 454 | 442 | 454 | 466 | 465 | 449 | 466 | 455 | 443 | 443 |
